# ChEMBL document CHEMBL1201862, “PubChem BioAssay data set” (2004)
# Calls of active or inactive are those of the source.
# Experiments:
# [1] = target: T1, Cytochrome P450 3A4 (Homo sapiens, UniProt P08684); details: Potency
# [2] = target: T2, Cytochrome P450 2C9 (Homo sapiens, UniProt P11712); details: Potency
# [3] = target: Prothrombin (Homo sapiens, UniProt P00734); assay: Thrombin 1536 HTS Dose Response Confirmation. [Related pubchem assays: 1046 (Thrombin 1536 HTS; hits were confirmed in this assay)]; format: functional
# [4] = system: Saccharomyces cerevisiae; assay: NALP1 inhibitor project selectivity study, Caspase-1/ASC signal blockade IC50 in S. cerevisiae (AID 488863); format: functional, organism-based
# [5] = target: NACHT, LRR and PYD domains-containing protein 1 (Homo sapiens, UniProt Q9C000); assay: NALP1 inhibitors in yeast, dose response, luminescent (AID 488860); format: functional
# [6] = target: T2, Cytochrome P450 2C9
# [7] = target: T1, Cytochrome P450 3A4
# [8] = target: Trypsin (Sus scrofa, UniProt P00761); assay: porcine trypsin inhibitors, dose response, selectivity assay for Rce1 protease inhibitor project, biochemical, quenched peptide fluorescence, cherry-pick (AID 488789)
# [9] = target: T3, CAAX prenyl protease 2 (Homo sapiens, UniProt Q9Y256); assay: human Rce1 protease inhibitors, dose response, biochemical, yeast membranes, quenched-peptide fluorescence, cherry-pick (AID 588849)
# T3 sequence (Q9Y256 whole entry): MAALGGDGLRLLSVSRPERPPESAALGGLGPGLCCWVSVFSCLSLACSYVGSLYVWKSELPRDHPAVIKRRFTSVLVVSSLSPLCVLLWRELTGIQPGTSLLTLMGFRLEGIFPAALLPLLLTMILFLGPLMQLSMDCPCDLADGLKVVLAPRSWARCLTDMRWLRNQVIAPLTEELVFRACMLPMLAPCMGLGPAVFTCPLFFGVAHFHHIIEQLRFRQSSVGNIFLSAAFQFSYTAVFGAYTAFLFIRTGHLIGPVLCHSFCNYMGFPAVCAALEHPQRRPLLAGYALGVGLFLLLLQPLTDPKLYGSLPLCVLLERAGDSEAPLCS
# [10] = system: Streptococcus sp. 'group A'; assay: growth inhibition of control SK(-) GAS strain, dose response, counter-screen for streptokinase expression inhibitor project, luminescence, kanamycin, BacTiterGlo, confirmation (AID 1900); format: functional, organism-based
# [11] = target: T4, Streptokinase A (Streptococcus pyogenes serotype M1, UniProt P10520); assay: S. pyogenes streptokinase expression inhibitors, potency, dose response, plasminogen activation absorbance, OD405 (AID 1914); format: functional, Streptococcus pyogenes M1 GAS;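 further: secreted streptokinase activity via plasminogen activation per viability signal from cell pellet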
# T4 sequence (P10520 whole entry): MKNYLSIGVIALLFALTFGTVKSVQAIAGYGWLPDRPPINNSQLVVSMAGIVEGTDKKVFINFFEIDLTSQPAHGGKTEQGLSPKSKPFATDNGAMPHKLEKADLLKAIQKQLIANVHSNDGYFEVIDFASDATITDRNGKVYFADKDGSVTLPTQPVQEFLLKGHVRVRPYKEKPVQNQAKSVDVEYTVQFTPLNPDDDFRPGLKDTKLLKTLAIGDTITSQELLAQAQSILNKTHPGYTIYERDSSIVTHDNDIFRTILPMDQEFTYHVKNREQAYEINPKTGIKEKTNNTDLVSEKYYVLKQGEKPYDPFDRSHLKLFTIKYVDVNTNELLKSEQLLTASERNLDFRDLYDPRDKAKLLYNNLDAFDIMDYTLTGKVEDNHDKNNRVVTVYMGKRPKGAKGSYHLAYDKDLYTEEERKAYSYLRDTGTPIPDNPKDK
# [12] = system: Streptococcus; assay: Group A Streptococcus viability loss, dose response, counter-screen for streptokinase expression inhibitor project, luminescence, BacTiterGlo (AID 1915); format: functional, organism-based;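 further: potency for reduction of bacterial viability or growth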
# [13] = target: CAAX prenyl protease 2 (Saccharomyces cerevisiae S288c, UniProt Q03530); format: biochemical
# [14] = target: Voltage-dependent T-type calcium channel subunit alpha-1H (Homo sapiens, UniProt O95180); format: functional;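 further: channel activity triggered by adding a high calcium stimulation buffer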
# [15] = target: T5, Cytochrome P450 1A2 (Homo sapiens, UniProt P05177);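 further: PubChem cytochrome P450 panel assay, CYP1A2 panel member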
# T5 sequence (P05177 whole entry): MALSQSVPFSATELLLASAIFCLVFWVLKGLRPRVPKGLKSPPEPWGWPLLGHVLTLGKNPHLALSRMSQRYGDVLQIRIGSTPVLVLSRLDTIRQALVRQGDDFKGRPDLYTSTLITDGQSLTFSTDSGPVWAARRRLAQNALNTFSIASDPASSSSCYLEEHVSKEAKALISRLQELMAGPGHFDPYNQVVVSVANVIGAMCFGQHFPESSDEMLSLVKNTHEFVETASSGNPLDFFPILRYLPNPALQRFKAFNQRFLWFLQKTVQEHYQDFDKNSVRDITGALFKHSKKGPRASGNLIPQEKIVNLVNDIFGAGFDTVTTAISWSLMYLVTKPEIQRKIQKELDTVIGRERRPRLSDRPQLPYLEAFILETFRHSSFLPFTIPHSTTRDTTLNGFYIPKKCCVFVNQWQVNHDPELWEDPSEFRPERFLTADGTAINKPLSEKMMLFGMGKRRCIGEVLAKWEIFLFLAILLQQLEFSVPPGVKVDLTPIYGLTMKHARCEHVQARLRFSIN
# [16] = target: T1, Cytochrome P450 3A4; remark: listed apart in the source
# [17] = target: T2, Cytochrome P450 2C9; remark: listed apart in the source
# [18] = target: T6, Runt-related transcription factor 1/Core-binding factor subunit beta (Homo sapiens, UniProt Q01196+Q13951); assay: inhibitors of RUNX1 Runt–CBFb-SMMHC binding, primary screen, biochemical, FRET, Cerulean-Runt, Venus-CBFb-SMMHC, uHTS (AID 1434); format: protein assay;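 further: partner is the CBFb-SMMHC leukemia fusion protein rather than wild-type CBFb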
# [19] = target: NS3 (Hepatitis C virus, UniProt A3EZJ3); assay: PubChem AID 2173; design: species or system Hepacivirus hominis
# [20] = target: T6, Runt-related transcription factor 1/Core-binding factor subunit beta; assay: inhibitors of RUNX1 Runt–CBFb-SMMHC binding, biochemical, TR-FRET (AID 1438); format: protein assay
# [21] = target: T7, Cysteine protease ATG4B (Homo sapiens, UniProt Q9Y4P1); format: functional;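 further: Fluorescence-based dose-response confirmation assay measuring inhibition of ATG4B activity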
# T7 sequence (Q9Y4P1 whole entry): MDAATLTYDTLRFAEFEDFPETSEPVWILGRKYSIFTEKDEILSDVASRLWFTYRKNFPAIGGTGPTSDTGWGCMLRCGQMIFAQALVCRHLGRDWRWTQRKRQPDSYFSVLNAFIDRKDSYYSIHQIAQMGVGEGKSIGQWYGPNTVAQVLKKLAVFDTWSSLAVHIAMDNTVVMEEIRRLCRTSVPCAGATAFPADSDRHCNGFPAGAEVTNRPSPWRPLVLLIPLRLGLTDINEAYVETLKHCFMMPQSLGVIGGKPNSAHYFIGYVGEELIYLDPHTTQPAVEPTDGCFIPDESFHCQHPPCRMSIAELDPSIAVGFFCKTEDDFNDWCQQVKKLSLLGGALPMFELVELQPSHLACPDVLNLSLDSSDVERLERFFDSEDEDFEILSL
# [22] = target: Phospholipase A2 (Homo sapiens, UniProt P04054); format: functional;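 further: confirmatory dose-response counterscreen on phospholipase A2, testing hits that came from an ultra-high-throughput screen for ATG4B inhibitors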
# [23] = THP-1 cell cytotoxicity, dose response, cytotoxicity control for Vif-APOBEC3G degradation inhibitor project, THP-1 cells (AID 1117359); format: functional; details: Human immunodeficiency virus 1, THP-1
# [24] = A Cell Based Secondary Assay To Explore Cytotoxicity of Compounds that Sensitize Mycobacterium Tuberculosis to Beta-Lactam Antibiotics.; format: functional
# [25] = target: T8, Calpain-2 catalytic subunit (Sus scrofa, UniProt P43367); assay: pig calpain II inhibitor potency, dose response, biochemical, fluorogenic peptide substrate (AID 1420); format: functional
# T8 sequence (P43367 whole entry): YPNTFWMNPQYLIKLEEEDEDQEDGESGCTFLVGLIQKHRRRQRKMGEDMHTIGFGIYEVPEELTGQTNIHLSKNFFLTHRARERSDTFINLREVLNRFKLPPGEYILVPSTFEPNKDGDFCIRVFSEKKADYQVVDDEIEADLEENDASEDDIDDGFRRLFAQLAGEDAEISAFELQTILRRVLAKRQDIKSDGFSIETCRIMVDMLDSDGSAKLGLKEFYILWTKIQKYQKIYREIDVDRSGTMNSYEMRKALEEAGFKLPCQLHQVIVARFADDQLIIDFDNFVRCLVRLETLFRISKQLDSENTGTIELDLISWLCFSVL
# [26] = target: Coagulation factor XII (Homo sapiens, UniProt P00748); format: functional;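 further: activated factor XIIa alpha cleaving a fluorogenic AMC peptide substrate; inhibitor potency from loss of enzyme activity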
# [27] = target: Tumor necrosis factor (Homo sapiens, UniProt P01375); assay: TNFa-triggered NF-kB activation inhibitors, SAR follow-up, cell-based, revised (AID 2337); format: functional
# [28] = target: T9, Nucleotide-binding oligomerization domain-containing protein 1 (Homo sapiens, UniProt Q9Y239); assay: NOD1 signaling inhibitors, SAR follow-up, revised (AID 2333); format: functional
# T9 sequence (Q9Y239 whole entry): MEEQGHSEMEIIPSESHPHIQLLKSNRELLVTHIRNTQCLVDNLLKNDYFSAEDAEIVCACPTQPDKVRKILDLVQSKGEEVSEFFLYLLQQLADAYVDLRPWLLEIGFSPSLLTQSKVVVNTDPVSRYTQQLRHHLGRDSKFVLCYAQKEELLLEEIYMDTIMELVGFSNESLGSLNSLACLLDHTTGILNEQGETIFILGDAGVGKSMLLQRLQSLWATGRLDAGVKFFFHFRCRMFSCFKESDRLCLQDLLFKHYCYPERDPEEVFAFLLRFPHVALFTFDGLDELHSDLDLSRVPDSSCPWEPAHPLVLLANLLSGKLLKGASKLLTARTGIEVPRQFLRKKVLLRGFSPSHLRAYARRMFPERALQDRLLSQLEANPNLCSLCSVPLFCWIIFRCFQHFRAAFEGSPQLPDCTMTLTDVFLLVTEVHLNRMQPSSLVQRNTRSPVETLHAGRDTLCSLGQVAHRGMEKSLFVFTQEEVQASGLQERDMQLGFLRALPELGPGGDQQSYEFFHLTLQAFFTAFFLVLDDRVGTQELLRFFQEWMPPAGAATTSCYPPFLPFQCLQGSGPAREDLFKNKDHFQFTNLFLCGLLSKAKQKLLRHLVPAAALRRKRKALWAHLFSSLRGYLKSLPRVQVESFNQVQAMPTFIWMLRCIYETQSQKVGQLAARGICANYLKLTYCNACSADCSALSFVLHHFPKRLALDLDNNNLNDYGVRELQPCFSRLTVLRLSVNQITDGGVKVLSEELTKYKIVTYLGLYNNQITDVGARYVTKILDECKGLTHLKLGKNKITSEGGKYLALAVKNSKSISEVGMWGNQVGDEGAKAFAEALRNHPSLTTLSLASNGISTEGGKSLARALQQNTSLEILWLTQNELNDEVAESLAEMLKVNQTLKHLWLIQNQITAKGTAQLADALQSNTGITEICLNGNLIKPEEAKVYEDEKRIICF
# [29] = system: HEK293; assay: cells; details: Homo sapiens;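 further: cells exposed to compound for 14 hours overnight before viability readout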
# [30] = target: Phosphoethanolamine/phosphocholine phosphatase (Homo sapiens, UniProt Q8TCT1); assay: SAR assay for compounds that inhibit PHOSPHO1. [Related pubchem assays (depositor defined):AID1545, AID1565, AID1574]
# Chain of Phosphoethanolamine/phosphocholine phosphatase (Q8TCT1 whole entry): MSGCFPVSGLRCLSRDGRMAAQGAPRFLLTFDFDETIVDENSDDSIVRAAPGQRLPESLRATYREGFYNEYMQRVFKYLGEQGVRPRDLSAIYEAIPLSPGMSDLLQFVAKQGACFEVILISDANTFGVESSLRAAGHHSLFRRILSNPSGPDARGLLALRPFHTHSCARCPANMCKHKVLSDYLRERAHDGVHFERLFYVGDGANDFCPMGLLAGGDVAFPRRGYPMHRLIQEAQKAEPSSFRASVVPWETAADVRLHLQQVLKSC
# T2 sequence (P11712 whole entry): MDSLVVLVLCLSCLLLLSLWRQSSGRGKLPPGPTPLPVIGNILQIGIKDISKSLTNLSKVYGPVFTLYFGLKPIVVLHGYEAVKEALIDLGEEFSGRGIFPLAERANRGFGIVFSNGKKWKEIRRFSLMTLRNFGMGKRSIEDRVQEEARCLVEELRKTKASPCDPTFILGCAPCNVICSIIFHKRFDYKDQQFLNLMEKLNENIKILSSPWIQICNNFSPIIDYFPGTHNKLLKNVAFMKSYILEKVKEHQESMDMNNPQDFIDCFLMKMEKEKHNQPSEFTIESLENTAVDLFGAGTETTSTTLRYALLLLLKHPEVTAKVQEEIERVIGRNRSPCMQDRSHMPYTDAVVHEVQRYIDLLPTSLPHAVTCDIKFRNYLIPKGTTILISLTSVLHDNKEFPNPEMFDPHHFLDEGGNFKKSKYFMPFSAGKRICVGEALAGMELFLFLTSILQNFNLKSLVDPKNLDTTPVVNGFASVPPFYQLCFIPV
# T6 sequence (Q01196 whole entry, the tested form may be a part): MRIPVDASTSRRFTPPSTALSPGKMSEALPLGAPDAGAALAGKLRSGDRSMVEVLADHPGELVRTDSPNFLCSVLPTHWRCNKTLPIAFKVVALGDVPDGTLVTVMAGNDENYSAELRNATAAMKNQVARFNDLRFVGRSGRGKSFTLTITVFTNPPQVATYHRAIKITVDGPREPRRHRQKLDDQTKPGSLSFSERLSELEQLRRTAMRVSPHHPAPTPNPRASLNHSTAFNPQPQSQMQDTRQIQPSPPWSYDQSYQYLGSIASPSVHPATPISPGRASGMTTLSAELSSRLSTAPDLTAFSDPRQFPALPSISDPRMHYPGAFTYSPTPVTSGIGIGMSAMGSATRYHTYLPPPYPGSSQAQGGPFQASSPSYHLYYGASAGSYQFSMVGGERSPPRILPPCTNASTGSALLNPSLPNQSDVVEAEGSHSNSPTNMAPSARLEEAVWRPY
# T6 sequence (Q13951 whole entry, the tested form may be a part): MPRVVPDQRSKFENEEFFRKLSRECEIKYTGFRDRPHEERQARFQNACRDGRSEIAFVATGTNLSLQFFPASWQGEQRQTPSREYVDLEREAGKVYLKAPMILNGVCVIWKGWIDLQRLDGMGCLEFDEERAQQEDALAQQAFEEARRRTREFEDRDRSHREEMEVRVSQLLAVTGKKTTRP
# T1 sequence (P08684 whole entry): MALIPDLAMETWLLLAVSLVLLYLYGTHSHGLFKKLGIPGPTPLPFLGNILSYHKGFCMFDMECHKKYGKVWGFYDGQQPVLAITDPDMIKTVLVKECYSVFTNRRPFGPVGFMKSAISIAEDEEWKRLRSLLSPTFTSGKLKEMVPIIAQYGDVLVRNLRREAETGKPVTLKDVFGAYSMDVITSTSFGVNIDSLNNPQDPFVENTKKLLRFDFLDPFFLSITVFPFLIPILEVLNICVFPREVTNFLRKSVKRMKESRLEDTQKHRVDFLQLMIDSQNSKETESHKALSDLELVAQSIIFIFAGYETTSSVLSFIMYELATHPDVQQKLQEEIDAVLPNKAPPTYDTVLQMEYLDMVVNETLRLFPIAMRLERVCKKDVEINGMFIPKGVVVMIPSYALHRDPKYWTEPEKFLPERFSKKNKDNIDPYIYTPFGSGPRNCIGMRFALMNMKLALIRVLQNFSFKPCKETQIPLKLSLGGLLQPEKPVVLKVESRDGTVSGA
# Chain of NACHT, LRR and PYD domains-containing protein 1 (Q9C000 1-1212 limits assumed): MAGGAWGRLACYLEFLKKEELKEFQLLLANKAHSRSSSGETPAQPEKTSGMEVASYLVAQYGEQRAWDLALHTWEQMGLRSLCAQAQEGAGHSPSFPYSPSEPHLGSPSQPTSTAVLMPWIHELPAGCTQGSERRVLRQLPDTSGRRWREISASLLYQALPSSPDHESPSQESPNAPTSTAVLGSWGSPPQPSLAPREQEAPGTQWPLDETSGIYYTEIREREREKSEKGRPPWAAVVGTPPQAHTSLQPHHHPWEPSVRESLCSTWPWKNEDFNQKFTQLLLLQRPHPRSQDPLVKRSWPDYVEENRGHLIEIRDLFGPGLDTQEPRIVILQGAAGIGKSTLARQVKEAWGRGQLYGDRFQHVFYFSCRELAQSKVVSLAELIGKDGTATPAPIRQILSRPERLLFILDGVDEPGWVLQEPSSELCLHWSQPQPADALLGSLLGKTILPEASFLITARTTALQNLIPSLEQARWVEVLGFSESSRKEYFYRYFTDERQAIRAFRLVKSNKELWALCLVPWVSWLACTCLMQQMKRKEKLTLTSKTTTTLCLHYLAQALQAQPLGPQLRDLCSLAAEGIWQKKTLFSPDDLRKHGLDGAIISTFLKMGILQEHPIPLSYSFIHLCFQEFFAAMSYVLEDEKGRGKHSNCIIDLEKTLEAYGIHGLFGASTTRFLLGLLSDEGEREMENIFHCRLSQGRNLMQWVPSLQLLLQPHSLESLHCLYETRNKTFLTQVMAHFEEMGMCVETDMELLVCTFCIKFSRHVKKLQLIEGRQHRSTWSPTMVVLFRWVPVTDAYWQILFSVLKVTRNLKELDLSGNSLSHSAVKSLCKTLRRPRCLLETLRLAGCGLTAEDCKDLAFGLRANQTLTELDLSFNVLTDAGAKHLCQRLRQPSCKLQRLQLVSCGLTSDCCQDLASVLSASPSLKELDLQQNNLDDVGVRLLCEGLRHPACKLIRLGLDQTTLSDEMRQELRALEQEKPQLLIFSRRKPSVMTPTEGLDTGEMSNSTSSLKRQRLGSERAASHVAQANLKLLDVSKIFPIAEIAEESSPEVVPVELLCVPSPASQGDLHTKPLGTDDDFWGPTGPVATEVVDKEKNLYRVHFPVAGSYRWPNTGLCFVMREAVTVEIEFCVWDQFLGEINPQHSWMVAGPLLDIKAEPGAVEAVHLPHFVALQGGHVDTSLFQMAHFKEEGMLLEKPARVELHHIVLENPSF
# Chain of NACHT, LRR and PYD domains-containing protein 1 (Q9C000 1213-1473 limits assumed): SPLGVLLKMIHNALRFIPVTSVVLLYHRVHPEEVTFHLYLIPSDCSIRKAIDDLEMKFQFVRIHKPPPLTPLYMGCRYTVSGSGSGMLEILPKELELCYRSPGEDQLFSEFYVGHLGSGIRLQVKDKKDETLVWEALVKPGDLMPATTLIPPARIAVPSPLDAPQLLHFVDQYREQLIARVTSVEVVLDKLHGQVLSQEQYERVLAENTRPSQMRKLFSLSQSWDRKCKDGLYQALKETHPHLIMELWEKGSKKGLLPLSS
# Chain of CAAX prenyl protease 2 (Saccharomyces cerevisiae S288c, UniProt Q03530) (Q03530 whole entry): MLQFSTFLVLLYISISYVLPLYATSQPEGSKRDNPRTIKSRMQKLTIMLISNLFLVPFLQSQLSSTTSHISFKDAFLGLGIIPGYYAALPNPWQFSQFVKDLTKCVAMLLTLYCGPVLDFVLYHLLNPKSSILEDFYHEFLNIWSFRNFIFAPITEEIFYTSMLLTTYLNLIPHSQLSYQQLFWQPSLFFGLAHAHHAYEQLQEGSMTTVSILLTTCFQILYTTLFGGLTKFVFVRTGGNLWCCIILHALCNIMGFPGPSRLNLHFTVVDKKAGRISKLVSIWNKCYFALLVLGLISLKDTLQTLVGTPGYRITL
# Chain of Coagulation factor XII (P00748 20-372 limits assumed): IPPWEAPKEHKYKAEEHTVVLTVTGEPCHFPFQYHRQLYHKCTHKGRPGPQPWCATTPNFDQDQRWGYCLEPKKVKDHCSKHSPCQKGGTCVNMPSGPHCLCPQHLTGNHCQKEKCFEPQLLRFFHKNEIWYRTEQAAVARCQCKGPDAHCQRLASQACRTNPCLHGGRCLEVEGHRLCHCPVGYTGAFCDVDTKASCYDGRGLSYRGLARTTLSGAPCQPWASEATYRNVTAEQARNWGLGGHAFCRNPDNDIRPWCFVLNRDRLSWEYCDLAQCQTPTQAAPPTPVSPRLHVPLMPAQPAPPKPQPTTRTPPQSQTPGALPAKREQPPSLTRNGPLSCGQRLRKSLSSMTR
# Chain of Coagulation factor XII (P00748 373-615 limits assumed): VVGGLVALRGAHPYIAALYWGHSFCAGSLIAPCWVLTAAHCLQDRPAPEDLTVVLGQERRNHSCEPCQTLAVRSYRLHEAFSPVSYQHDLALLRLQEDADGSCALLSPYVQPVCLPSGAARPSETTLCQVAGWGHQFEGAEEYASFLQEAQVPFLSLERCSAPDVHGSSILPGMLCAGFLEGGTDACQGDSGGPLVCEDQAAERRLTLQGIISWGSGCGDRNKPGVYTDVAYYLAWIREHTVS
# Chain of Trypsin (P00761 whole entry): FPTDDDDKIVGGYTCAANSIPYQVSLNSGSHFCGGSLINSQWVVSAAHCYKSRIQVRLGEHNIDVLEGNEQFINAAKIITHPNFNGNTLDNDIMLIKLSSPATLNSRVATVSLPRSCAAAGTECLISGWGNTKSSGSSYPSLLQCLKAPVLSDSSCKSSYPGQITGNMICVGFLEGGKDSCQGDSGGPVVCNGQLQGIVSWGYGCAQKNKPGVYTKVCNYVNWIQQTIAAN
# Chain of Tumor necrosis factor (P01375 whole entry, the tested form may be a part): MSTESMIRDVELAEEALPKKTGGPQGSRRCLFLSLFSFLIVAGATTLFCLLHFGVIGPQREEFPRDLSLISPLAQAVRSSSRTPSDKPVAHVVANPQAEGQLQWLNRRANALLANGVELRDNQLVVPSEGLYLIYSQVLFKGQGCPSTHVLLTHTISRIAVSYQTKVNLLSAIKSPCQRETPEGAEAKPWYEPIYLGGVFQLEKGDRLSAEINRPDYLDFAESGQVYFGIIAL
# Chain of Phospholipase A2 (P04054 whole entry): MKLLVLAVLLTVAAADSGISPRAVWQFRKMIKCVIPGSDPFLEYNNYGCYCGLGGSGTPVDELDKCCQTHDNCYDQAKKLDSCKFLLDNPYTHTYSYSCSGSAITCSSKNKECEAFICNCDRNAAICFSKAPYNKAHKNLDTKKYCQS
compound,measurement,setting,value
COc1cc2c(cc1O)-c1c(O)c(OC)cc3c1[C@H](C2)N(C)CC3,AC50,[1],20 µM (inconclusive)
same,AC50,[2],31.6 µM (inconclusive)
Cc1ccc2c(c1)c1c3n2CCCNC3CCC1 (configuration not stated),IC50,[3],> 50 µM (not active)
same,IC50,[4],87.6 µM (active)
same,IC50,[5],> 100 µM (inactive)
CC(=O)[C@@H]1CC[C@@H]2[C@@H]3CCC4=CC(=O)CC[C@@]4(C)[C@H]3CC[C@]21C,AC50,[2],39.8 µM (inconclusive)
same,AC50,[6],15.8 µM (inconclusive)
same,AC50,[7],inconclusive
COc1cc2nc3c(O)n(CCN4CCOCC4)cnc-3c2cc1OC,AC50,[8],16.1 µM (active)
same,AC50,[9],9.95 µM (active)
CCCCNc1c(-c2ccc(SC(C)CC)c(OC)c2)nc2ccc(C)cn12 (configuration not stated),EC50,[10],3.09 µM (active)
same,EC50,[11],8.79 µM (active)
same,EC50,[12],10.2 µM (active)
same,AC50,[8],2.63 µM (active)
same,AC50,[13],39.7 µM (active)
same,AC50,[9],32.5 µM (active)
O=S(=O)(Nc1ccc(S(=O)(=O)N2CCCCC2)cc1)c1ccc(Br)s1,EC50,[14],3.58 µM (active)
c1coc(-c2ccnc3ncnn23)c1,AC50,[13],24.5 µM (active)
same,AC50,[9],3.88 µM (active)
CN(C)c1ccc(/C=C2\SC(=S)N(Nc3ncc(C(F)(F)F)cc3Cl)C2=O)cc1,EC50,[14],2.86 µM (active)
same,AC50,[15],5.01 µM (inconclusive)
same,AC50,[16],14.1 µM (inconclusive)
same,AC50,[17],inconclusive
CC1CCCCC1NC(=O)COC(=O)c1c2c(nc3ccccc13)/C(=C/c1ccco1)CC2 (configuration not stated),IC50,[18],> 100 µM (inactive)
same,IC50,[19],11.1 µM (not active)
same,IC50,[20],10.6 µM (active)
same,IC50,[21],14.4 µM (active)
same,IC50,[22],8.31 µM (active)
same,CC50,[23],> 40 µM (active)
COc1ccc(C(=O)Nc2oc(-c3ccccc3)c(-c3ccccc3)c2C#N)cc1OC,CC50,[24],> 40 µM (active)
CCOCCCn1c(=N)c(C(N)=S)cc2c(=O)n3cccc(C)c3nc21,IC50,[18],0.257 µM (active)
same,IC50,[20],68.8 µM (inactive)
O=[N+]([O-])c1cc(C(F)(F)F)ccc1NCCc1c[nH]c2ccc(O)cc12,CC50,[24],> 40 µM (active)
same,IC50,[25],7.48 µM (not active)
C=C(C)C(=O)Nc1nnc(-c2cccs2)s1,IC50,[4],15 µM (active)
same,IC50,[5],11 µM (active)
O=C(Nc1ncnc2sc3c(c12)CCCCC3)c1ccc(F)cc1,IC50,[26],> 50 µM (inactive)
COC(=O)c1c(NC(=O)c2ccc(Cl)cc2)sc2c1CCCC2,IC50,[27],> 20 µM (inactive)
same,IC50,[28],> 20 µM (inactive)
same,IC50,[29],> 20 µM (inactive)
c1ccc(Nc2nc(-c3ccccc3)[n+](-c3ccccc3)s2)cc1,IC50,[30],4.99 µM (inactive)
CN(C)c1ccc(C(=S)N2CCOCC2)cc1 [(4-(DIMETHYLAMINO)PHENYL)(MORPHOLINO)METHANETHIONE],IC50,[26],> 50 µM (inactive)
